Results from PubChem BioAssay AID1963847 (Molecular Pharmacology Branch, DTP, NCI, 2024).

Tested on: 415267-285-R-J2-PDC complex spheroid viability
Assay: Anticancer human tumor 415267-285-R-J2-PDC patient-derived breast carcinoma cell line growth inhibition [POLQ]
Conditions: for IC50: curve of first compound; for viability, T/C: stronger effect = lower value
Summary of the method: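 Complex spheroid viability model combining PDC tumour cells with endothelial (HUVEC) and MSC stromal cells. Novobiocin, ART-558 or RP6685 were tested singly and in combination with standard and investigational anticancer drugs. Each was titrated in half-log steps from near clinical Cmax, or from 10 microM where Cmax was unknown.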

[1] = second compound 0.0316 µM, first compound 0.0316 µM
[2] = second compound 0.0316 µM, first compound 0.1 µM
[3] = second compound 0.0316 µM, first compound 0.316 µM
[4] = second compound 0.0316 µM, first compound 1 µM
[5] = second compound 0.0316 µM, first compound 3.16 µM
[6] = second compound 0.0316 µM, first compound 10 µM
[7] = second compound 0.1 µM, first compound 0.0316 µM
[8] = second compound 0.1 µM, first compound 0.1 µM
[9] = second compound 0.1 µM, first compound 0.316 µM
[10] = second compound 0.1 µM, first compound 1 µM
[11] = second compound 0.1 µM, first compound 3.16 µM
[12] = second compound 0.1 µM, first compound 10 µM
[13] = second compound 0.316 µM, first compound 0.0316 µM
[14] = second compound 0.316 µM, first compound 0.1 µM
[15] = second compound 0.316 µM, first compound 0.316 µM
[16] = second compound 0.316 µM, first compound 1 µM
[17] = second compound 0.316 µM, first compound 3.16 µM
[18] = second compound 0.316 µM, first compound 10 µM
[19] = second compound 1 µM, first compound 0.0316 µM
[20] = second compound 1 µM, first compound 0.1 µM
[21] = second compound 1 µM, first compound 0.316 µM
[22] = second compound 1 µM, first compound 1 µM
[23] = second compound 1 µM, first compound 3.16 µM
[24] = second compound 1 µM, first compound 10 µM
[25] = second compound 3.16 µM, first compound 0.0316 µM
[26] = second compound 3.16 µM, first compound 0.1 µM
[27] = second compound 3.16 µM, first compound 0.316 µM
[28] = second compound 3.16 µM, first compound 1 µM
[29] = second compound 3.16 µM, first compound 3.16 µM
[30] = second compound 3.16 µM, first compound 10 µM
[31] = second compound 10 µM, first compound 0.0316 µM
[32] = second compound 10 µM, first compound 0.1 µM
[33] = second compound 10 µM, first compound 0.316 µM
[34] = second compound 10 µM, first compound 1 µM
[35] = second compound 10 µM, first compound 3.16 µM
[36] = second compound 10 µM, first compound 10 µM
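Note: spheroids exposed to compounds for one week before readout.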
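Throughout, for viability, T/C: luminescence used as stand-in measure of viable cells; 100% = DMSO vehicle control viability.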

Q: Which IC50 (second compound 0.0316 µM) does the source give for `C=CC(=O)N1CCN(c2nc(=O)n(-c3c(C)ccnc3C(C)C)c3nc(-c4c(O)cccc4F)c(F)cc23)C(C)C1` (stereo unspecified) + Nc1ccc(C#CCN(C(=O)Cc2ncc(C(F)(F)F)cc2C(F)(F)F)c2ccc(F)cc2)nn1 here?
A: Its IC50 is greater than 10 µM.

Q: And the IC50 (second compound 0.1 µM)?
A: The IC50 was greater than 10 µM.

Q: And the IC50 (second compound 0.316 µM)?
A: The IC50 was greater than 10 µM.

Q: What about the IC50 (second compound 1 µM) of the same compound?
A: Its IC50 is greater than 10 µM.

Q: And the IC50 (second compound 3.16 µM)?
A: Its IC50 is greater than 10 µM.

Q: What about the IC50 (second compound 10 µM) of the same compound?
A: The IC50 was greater than 10 µM.

Q: What about the viability, T/C [1] of the same compound?
A: The viability, T/C was 99.7%.

Q: And the viability, T/C [2]?
A: Its viability, T/C is 110%.

Q: And the viability, T/C [3]?
A: The viability, T/C was 121%.

Q: And the viability, T/C [4]?
A: Its viability, T/C is 114%.

Q: And the viability, T/C [5]?
A: Its viability, T/C is 104%.

Q: What about the viability, T/C [6] of the same compound?
A: Its viability, T/C is 99.6%.

Q: And the viability, T/C [7]?
A: The viability, T/C was 98.5%.

Q: And the viability, T/C [8]?
A: The viability, T/C was 103%.

Q: And the viability, T/C [9]?
A: The viability, T/C was 94.7%.

Q: What about the viability, T/C [10] of the same compound?
A: The viability, T/C was 100%.

Q: What about the viability, T/C [11] of the same compound?
A: Its viability, T/C is 103%.

Q: And the viability, T/C [12]?
A: The viability, T/C was 105%.

Q: And the viability, T/C [13]?
A: The viability, T/C was 97.5%.

Q: What about the viability, T/C [14] of the same compound?
A: Its viability, T/C is 114%.

Q: And the viability, T/C [15]?
A: Its viability, T/C is 91.8%.

Q: What about the viability, T/C [16] of the same compound?
A: The viability, T/C was 93%.

Q: What about the viability, T/C [17] of the same compound?
A: The viability, T/C was 98.2%.

Q: And the viability, T/C [18]?
A: Its viability, T/C is 92.5%.

Q: And the viability, T/C [19]?
A: The viability, T/C was 111%.

Q: And the viability, T/C [20]?
A: Its viability, T/C is 91.7%.

Q: What about the viability, T/C [21] of the same compound?
A: The viability, T/C was 113%.

Q: What about the viability, T/C [22] of the same compound?
A: Its viability, T/C is 106%.

Q: And the viability, T/C [23]?
A: The viability, T/C was 96%.

Q: What about the viability, T/C [24] of the same compound?
A: Its viability, T/C is 105%.

Q: What about the viability, T/C [25] of the same compound?
A: The viability, T/C was 99.1%.

Q: What about the viability, T/C [26] of the same compound?
A: The viability, T/C was 106%.

Q: What about the viability, T/C [27] of the same compound?
A: Its viability, T/C is 107%.

Q: What about the viability, T/C [28] of the same compound?
A: The viability, T/C was 102%.

Q: And the viability, T/C [29]?
A: The viability, T/C was 99.1%.

Q: And the viability, T/C [30]?
A: Its viability, T/C is 104%.

Q: What about the viability, T/C [31] of the same compound?
A: The viability, T/C was 94.5%.

Q: And the viability, T/C [32]?
A: Its viability, T/C is 112%.

Q: And the viability, T/C [33]?
A: Its viability, T/C is 106%.

Q: And the viability, T/C [34]?
A: The viability, T/C was 107%.

Q: What about the viability, T/C [35] of the same compound?
A: Its viability, T/C is 104%.

Q: And the viability, T/C [36]?
A: The viability, T/C was 102%.

Q: Which IC50 (second compound 0.0316 µM) does the source give for `CC(C)n1c(=O)n(C)c2cnc3cc(F)c(-c4ccc(OCCCN5CCCCC5)nc4)cc3c21` + Nc1ccc(C#CCN(C(=O)Cc2ncc(C(F)(F)F)cc2C(F)(F)F)c2ccc(F)cc2)nn1 here?
A: Its IC50 is greater than 10 µM.

Q: What about the IC50 (second compound 0.1 µM) of the same compound?
A: Its IC50 is greater than 10 µM.

Q: And the IC50 (second compound 0.316 µM)?
A: The IC50 was greater than 10 µM.

Q: What about the IC50 (second compound 1 µM) of the same compound?
A: The IC50 was greater than 10 µM.

Q: What about the IC50 (second compound 3.16 µM) of the same compound?
A: Its IC50 is greater than 10 µM.

Q: And the IC50 (second compound 10 µM)?
A: The IC50 was greater than 10 µM.

Q: What about the viability, T/C [1] of the same compound?
A: Its viability, T/C is 102%.

Q: And the viability, T/C [2]?
A: Its viability, T/C is 107%.

Q: And the viability, T/C [3]?
A: Its viability, T/C is 105%.

Q: And the viability, T/C [4]?
A: Its viability, T/C is 122%.

Q: What about the viability, T/C [5] of the same compound?
A: Its viability, T/C is 104%.

Q: And the viability, T/C [6]?
A: Its viability, T/C is 103%.

Q: And the viability, T/C [7]?
A: Its viability, T/C is 103%.

Q: And the viability, T/C [8]?
A: Its viability, T/C is 105%.

Q: And the viability, T/C [9]?
A: The viability, T/C was 108%.

Q: And the viability, T/C [10]?
A: The viability, T/C was 96.1%.

Q: And the viability, T/C [11]?
A: The viability, T/C was 101%.

Q: And the viability, T/C [12]?
A: Its viability, T/C is 97.6%.

Q: And the viability, T/C [13]?
A: Its viability, T/C is 102%.

Q: And the viability, T/C [14]?
A: Its viability, T/C is 113%.

Q: What about the viability, T/C [15] of the same compound?
A: The viability, T/C was 101%.

Q: What about the viability, T/C [16] of the same compound?
A: Its viability, T/C is 105%.

Q: What about the viability, T/C [17] of the same compound?
A: The viability, T/C was 103%.

Q: And the viability, T/C [18]?
A: The viability, T/C was 108%.

Q: And the viability, T/C [19]?
A: The viability, T/C was 102%.

Q: What about the viability, T/C [20] of the same compound?
A: The viability, T/C was 105%.

Q: And the viability, T/C [21]?
A: Its viability, T/C is 96.4%.

Q: What about the viability, T/C [22] of the same compound?
A: The viability, T/C was 101%.

Q: And the viability, T/C [23]?
A: Its viability, T/C is 111%.

Q: What about the viability, T/C [24] of the same compound?
A: The viability, T/C was 108%.

Q: What about the viability, T/C [25] of the same compound?
A: The viability, T/C was 101%.

Q: What about the viability, T/C [26] of the same compound?
A: Its viability, T/C is 107%.

Q: What about the viability, T/C [27] of the same compound?
A: The viability, T/C was 110%.

Q: What about the viability, T/C [28] of the same compound?
A: Its viability, T/C is 111%.

Q: What about the viability, T/C [29] of the same compound?
A: The viability, T/C was 108%.

Q: And the viability, T/C [30]?
A: Its viability, T/C is 115%.

Q: And the viability, T/C [31]?
A: Its viability, T/C is 108%.

Q: And the viability, T/C [32]?
A: Its viability, T/C is 109%.

Q: And the viability, T/C [33]?
A: Its viability, T/C is 117%.

Q: And the viability, T/C [34]?
A: The viability, T/C was 126%.

Q: What about the viability, T/C [35] of the same compound?
A: Its viability, T/C is 106%.

Q: What about the viability, T/C [36] of the same compound?
A: Its viability, T/C is 117%.

Q: Which results are given for `CC1COCCN1c1cc(-c2ccnn2C)c2ccnc(-c3ccn[nH]3)c2n1` (stereo unspecified) + Nc1ccc(C#CCN(C(=O)Cc2ncc(C(F)(F)F)cc2C(F)(F)F)c2ccc(F)cc2)nn1?
A: IC50 (second compound 0.0316 µM): 0.0427 µM; IC50 (second compound 0.1 µM): 0.0402 µM; IC50 (second compound 0.316 µM): 0.04 µM; IC50 (second compound 1 µM): 0.0369 µM; IC50 (second compound 3.16 µM): 0.0326 µM; IC50 (second compound 10 µM): < 0.0316 µM; viability, T/C [1]: 63.7%; viability, T/C [2]: 11.2%; viability, T/C [3]: 5.02%; viability, T/C [4]: 3.87%; viability, T/C [5]: 4.17%; viability, T/C [6]: 3.9%; viability, T/C [7]: 60.3%; viability, T/C [8]: 10.8%; viability, T/C [9]: 4.23%; viability, T/C [10]: 3.18%; viability, T/C [11]: 4.26%; viability, T/C [12]: 3.58%; viability, T/C [13]: 60%; viability, T/C [14]: 11.4%; viability, T/C [15]: 4.5%; viability, T/C [16]: 3.99%; viability, T/C [17]: 3.82%; viability, T/C [18]: 4%; viability, T/C [19]: 56.4%; viability, T/C [20]: 8.91%; viability, T/C [21]: 4.69%; viability, T/C [22]: 3.73%; viability, T/C [23]: 3.7%; viability, T/C [24]: 3.28%; viability, T/C [25]: 51.2%; viability, T/C [26]: 9.4%; viability, T/C [27]: 5.57%; viability, T/C [28]: 3.36%; viability, T/C [29]: 3.4%; viability, T/C [30]: 4.22%; viability, T/C [31]: 42.1%; viability, T/C [32]: 10.7%; viability, T/C [33]: 5.92%; viability, T/C [34]: 3.97%; viability, T/C [35]: 3.84%; viability, T/C [36]: 4.9%
